Consider 16 molecules from patent publication US8563000B2, “Melanocortin receptor ligands modified with hydantoin” (Ipsen Pharma S.A.S., priority 2007, dated 2013).

The target in assay [1] is T1, hMC3 (Homo sapiens, UniProt P41968).
T1 construct: expressed in transfected cells; host or cells: CHO-K1
Nature of the assay: Radioligand binding assay, [125I]-NDP-α-MSH, CHO-K1 membranes. Here is the method: (§1) Cellular membranes used for the in vitro receptor binding assays were obtained from transgenic CHO-K1 cells stably expressing hMC-R receptor subtypes 1, 3, 4 or 5. […] The pellets were re-suspended in the same buffer and centrifuged at 50,000 g for 10 minutes at approximately 4° C. The washed pellets containing the cellular membranes were stored at approximately −80° C.
(§2) Filters were washed three times with 50 mM Tris-HCl at pH 7.4 at a temperature of approximately 0-4° C. and then assayed for radioactivity using a Packard Topcount® scintillation counter. Binding data were analyzed by computer-assisted non-linear regression analysis (XL fit; IDBS).

For assay [2], the target named is T2, hMC1 (Homo sapiens, UniProt Q01726).
T2 construct: expressed in transfected cells; host or cells: CHO-K1
Described as above. How it is done:
as §1, §2

The target in assay [3] is T3, hMC5 (Homo sapiens, UniProt P33032).
T3 construct: expressed in transfected cells; host or cells: CHO-K1
The description is as above. How it is done: as §1, §2

In assay [4] the target is T4, hMC4 (Homo sapiens, UniProt P32245).
T4 construct: expressed in transfected cells; host or cells: CHO-K1
The assay is described as above. How it is done: as §1, §2

The target of assay [5] is T4, hMC4. Put plainly: Cyclic AMP bioassay (ECL), CHO-K1 cells expressing hMC4. Type of assay: cell-based. The conditions noted are these: intracellular cAMP.
Description: (§3) Intracellular cyclic AMP (cAMP) levels were determined by an electrochemiluminescence (ECL) assay (Meso Scale Discovery®, Gaithersburg, Md.; referred to hereinafter as “MSD”). […] Transgenic CHO-K1 cells stably expressing hMC receptor subtypes 1, 3, 4 or 5 were dispensed at a density of approximately 7,000 cells/well in 384-well Multi-Array® plates (MSD) containing integrated carbon electrodes and coated with anti-cAMP antibody. Increasing concentrations of the test compounds were added and the cells were incubated for approximately 40 minutes at approximately 37° C. […] At the end of the second incubation period read buffer (Tris-buffered solution containing an ECL co-reactant and Triton X-100 at ph 7.8) was added and the cAMP levels in the cell lysates were immediately determined by ECL detection with a Sector Imager 6000 Reader® (MSD). Data was analyzed using a computer-assisted non-linear regression analysis (XL fit; IDBS) and reported as either an EC50 value or a Kb value.
Assay [6] addresses T3, hMC5. Nature of the assay: Cyclic AMP bioassay (ECL), CHO-K1 cells expressing hMC5. It is filed as cell-based. The conditions noted are these: intracellular cAMP.
Description: as §3
Assay [7] deals with T1, hMC3. Put plainly: Cyclic AMP bioassay (ECL), CHO-K1 cells expressing hMC3. It is filed as cell-based. Conditions: intracellular cAMP.
Description: as §3
In assay [8] the target is T2, hMC1. Nature of the assay: Cyclic AMP bioassay (ECL), CHO-K1 cells expressing hMC1. Type of assay: cell-based. Conditions: intracellular cAMP.
Description: as §3

SMILES strings stand for the structures.

T2 sequence (Q01726 whole entry): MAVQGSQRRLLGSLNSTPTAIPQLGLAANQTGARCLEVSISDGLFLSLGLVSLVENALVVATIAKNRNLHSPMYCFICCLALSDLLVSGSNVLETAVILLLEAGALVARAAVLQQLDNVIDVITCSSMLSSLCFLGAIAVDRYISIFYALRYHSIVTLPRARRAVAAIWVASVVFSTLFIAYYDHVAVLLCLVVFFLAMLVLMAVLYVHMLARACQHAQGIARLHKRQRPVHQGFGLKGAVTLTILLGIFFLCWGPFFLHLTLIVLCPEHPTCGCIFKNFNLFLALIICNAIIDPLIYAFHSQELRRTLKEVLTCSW
T3 sequence (P33032 whole entry): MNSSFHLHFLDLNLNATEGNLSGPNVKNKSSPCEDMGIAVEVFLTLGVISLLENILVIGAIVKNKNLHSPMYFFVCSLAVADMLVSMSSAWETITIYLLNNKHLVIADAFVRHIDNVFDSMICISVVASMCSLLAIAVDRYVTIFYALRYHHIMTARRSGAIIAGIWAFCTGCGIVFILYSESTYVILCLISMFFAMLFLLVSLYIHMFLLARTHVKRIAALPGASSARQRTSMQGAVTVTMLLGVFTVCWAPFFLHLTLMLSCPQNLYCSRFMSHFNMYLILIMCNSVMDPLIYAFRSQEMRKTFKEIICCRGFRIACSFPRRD
T4 sequence (P32245 whole entry): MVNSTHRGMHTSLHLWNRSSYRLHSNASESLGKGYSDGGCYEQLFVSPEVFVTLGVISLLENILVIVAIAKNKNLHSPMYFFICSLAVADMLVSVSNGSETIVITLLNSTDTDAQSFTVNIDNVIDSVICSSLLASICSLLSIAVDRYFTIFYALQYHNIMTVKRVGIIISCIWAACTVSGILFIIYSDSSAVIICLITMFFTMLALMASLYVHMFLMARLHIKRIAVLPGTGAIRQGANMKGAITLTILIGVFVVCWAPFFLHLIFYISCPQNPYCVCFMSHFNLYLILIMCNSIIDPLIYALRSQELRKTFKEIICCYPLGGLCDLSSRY
T1 sequence (P41968 whole entry): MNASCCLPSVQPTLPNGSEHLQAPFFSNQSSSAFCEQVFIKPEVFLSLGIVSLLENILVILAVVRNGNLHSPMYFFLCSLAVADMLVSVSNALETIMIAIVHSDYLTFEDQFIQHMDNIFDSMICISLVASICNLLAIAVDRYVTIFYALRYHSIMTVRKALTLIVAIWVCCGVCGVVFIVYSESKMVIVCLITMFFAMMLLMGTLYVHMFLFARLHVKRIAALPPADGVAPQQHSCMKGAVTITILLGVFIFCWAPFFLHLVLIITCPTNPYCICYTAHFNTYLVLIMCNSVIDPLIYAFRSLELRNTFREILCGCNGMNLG

`N=C(N)NCCC[C@@H]1NC(=O)[C@@H](Cc2ccc3ccccc3c2)NC(=O)C2(CCCCC2)N2C(=O)N[C@@H](CC(=O)NCCCC[C@@H](C(N)=O)NC(=O)[C@H](Cc3c[nH]c4ccccc34)NC1=O)C2=O` [cyclo[Hydantoin(C(O)-(Asp-A6c))-D-2-Nal-Arg-Trp-Lys]-NH2]: the Ki on hMC3 [1] turned out to be 1480 nM; at hMC1 [2], 2170 nM; on hMC5 [3] it was 451 nM; on hMC4 [4] it was 16.5 nM.
As to `C[C@@H]1C(=O)N[C@@H](Cc2cnc[nH]2)C(=O)N[C@H](Cc2ccccc2)C(=O)N[C@@H](CCCNC(=N)N)C(=O)N[C@@H](Cc2c[nH]c3ccccc23)C(=O)N[C@H](C(N)=O)CNC(=O)C[C@@H]2NC(=O)N1C2=O` [cyclo[Hydantoin(C(O)-(Asp-D-Ala))-His-D-Phe-Arg-Trp-Dap]-NH2], the inhibitory constant (Ki) at hMC5 [3] is more than 10000 nM.
`N=C(N)NCCC[C@@H]1NC(=O)[C@@H](Cc2ccc3ccccc3c2)NC(=O)C2(CCNCC2)N2C(=O)N[C@@H](CC(=O)NCCCC[C@@H](C(N)=O)NC(=O)[C@H](Cc3c[nH]c4ccccc34)NC1=O)C2=O` [cyclo[Hydantoin(C(O)-(Asp-Apc))-D-2-Nal-Arg-Trp-Lys]-NH2]: the inhibition constant Ki on hMC3 [1] was determined as 2760 nM; at hMC1 [2], 1280 nM; on hMC4 [4], 266 nM.
Regarding `C[C@H]1NC(=O)[C@@H](NC(=O)[C@@H](CCCNC(=N)N)N2C(=O)CNC2=O)CSSC[C@@H](C(N)=O)NC(=O)[C@H](Cc2c[nH]c3ccccc23)NC(=O)[C@H](CCCNC(=N)N)NC(=O)[C@@H](Cc2ccccc2)NC(=O)[C@H](Cc2cnc[nH]2)NC1=O` [Hydantoin(C(O)-(Gly-D-Arg))-cyclo(Cys-D-Ala-His-D-Phe-Arg-Trp-Cys)-NH2], the EC50 worked out at 0.435 nM on hMC4 [5], 9840 nM on hMC5 [6], 11.6 nM on hMC3 [7] and 7.53 nM at hMC1 [8].
In turn, `N=C(N)NCCC[C@@H]1NC(=O)[C@@H](Cc2ccccc2)NC(=O)[C@H](Cc2cnc[nH]2)NC(=O)[C@H](CCC(=O)O)NC(=O)[C@@H](NC(=O)CN2C(=O)CNC2=O)CSSC[C@@H](C(N)=O)NC(=O)[C@H](Cc2c[nH]c3ccccc23)NC1=O` [Hydantoin(C(O)-(Gly-Gly))-cyclo(Cys-Glu-His-D-Phe-Arg-Trp-Cys)-NH2] displayed an EC50 on hMC5 [6] of more than 10000 nM.
With `C[C@@H]1C(=O)N[C@@H](Cc2cnc[nH]2)C(=O)N[C@H](Cc2ccccc2)C(=O)N[C@@H](CCCNC(=N)N)C(=O)N[C@@H](Cc2c[nH]c3ccccc23)C(=O)N[C@H](C(N)=O)CCCCNC(=O)CC[C@@H]2NC(=O)N1C2=O` [cyclo[Hydantoin(C(O)-(Glu-D-Ala))-His-D-Phe-Arg-Trp-Lys]-NH2], the concentration giving a half-maximal response (EC50) was determined as 3.62 nM on hMC4 [5] and 22.3 nM at hMC3 [7]. Also, the Ki on hMC3 [1] came to 1920 nM; at hMC1 [2], 72.6 nM; at hMC4 [4], 45.2 nM.
As for `CCCC[C@@H](C(=O)N[C@H]1CSSC[C@@H](C(N)=O)NC(=O)[C@H](Cc2c[nH]c3ccccc23)NC(=O)[C@H](CCCNC(=N)N)NC(=O)[C@@H](Cc2ccccc2)NC(=O)[C@H](Cc2cnc[nH]2)NC(=O)[C@@H](C)NC1=O)N1C(=O)N[C@H](C)C1=O` [Hydantoin(C(O)-(D-Ala-Nle))-cyclo(Cys-D-Ala-His-D-Phe-Arg-Trp-Cys)-NH2], the EC50 turned out to be 1.47 nM on hMC4 [5] and 2.56 nM at hMC3 [7].
For the molecule `CCCC[C@@H]1NC(=O)N(CC(=O)N[C@H]2CSSC[C@@H](C(N)=O)NC(=O)[C@H](Cc3c[nH]c4ccccc34)NC(=O)[C@H](CCCNC(=N)N)NC(=O)[C@@H](Cc3ccccc3)NC(=O)[C@H](Cc3cnc[nH]3)NC(=O)[C@H](CCC(=O)O)NC2=O)C1=O` [Hydantoin(C(O)-(Nle-Gly))-cyclo(Cys-Glu-His-D-Phe-Arg-Trp-Cys)-NH2], the EC50 on hMC5 [6] was more than 10000 nM.
As to `C[C@H]1NC(=O)[C@@H](NC(=O)CN2C(=O)N[C@H](CCCNC(=N)N)C2=O)CSSC[C@@H](C(N)=O)NC(=O)[C@H](Cc2c[nH]c3ccccc23)NC(=O)[C@H](CCCNC(=N)N)NC(=O)[C@@H](Cc2ccccc2)NC(=O)[C@H](Cc2cnc[nH]2)NC1=O` [Hydantoin(C(O)-(D-Arg-Gly))-cyclo(Cys-D-Ala-His-D-Phe-Arg-Trp-Cys)-NH2], the EC50 at hMC4 [5] came to 0.513 nM; at hMC5 [6], 3950 nM; at hMC3 [7], 23.2 nM; at hMC1 [8], 11.5 nM.
The matching figures for `N=C(N)NCCC[C@@H]1NC(=O)[C@@H](Cc2ccccc2)NC(=O)[C@H](Cc2cnc[nH]2)NC(=O)[C@H](CCC(=O)O)NC(=O)[C@@H](N2C(=O)CNC2=O)CSSC[C@@H](C(N)=O)NC(=O)[C@H](Cc2c[nH]c3ccccc23)NC1=O` [cyclo[Hydantoin(C(O)-(Gly-Cys))-Glu-His-D-Phe-Arg-Trp-Cys]-NH2]: 0.576 nM, 1780 nM, 21.8 nM and 14.5 nM.
In the case of `C[C@@H]1C(=O)N[C@@H](Cc2cnc[nH]2)C(=O)N[C@H](Cc2ccccc2)C(=O)N[C@@H](CCCNC(=N)N)C(=O)N[C@@H](Cc2c[nH]c3ccccc23)C(=O)N[C@H](C(N)=O)CCCNC(=O)CC[C@@H]2NC(=O)N1C2=O` [cyclo[Hydantoin(C(O)-(Glu-D-Ala))-His-D-Phe-Arg-Trp-Orn]-NH2], the concentration for a half-maximal effect (EC50) at hMC4 [5] came out at 4.94 nM; on hMC3 [7], 39.2 nM. Also, the inhibition constant Ki on hMC3 [1] came out at 2840 nM; on hMC1 [2], 60.4 nM; at hMC4 [4], 52.4 nM.
Take `C[C@@H]1C(=O)N[C@@H](Cc2cnc[nH]2)C(=O)N[C@H](Cc2ccccc2)C(=O)N[C@@H](CCCNC(=N)N)C(=O)N[C@@H](Cc2c[nH]c3ccccc23)C(=O)N[C@H](C(N)=O)CNC(=O)CC[C@@H]2NC(=O)N1C2=O` [cyclo[Hydantoin(C(O)-(Glu-D-Ala))-His-D-Phe-Arg-Trp-Dap]-NH2]: the values for the EC50 at hMC4 [5], at hMC3 [7] and at hMC1 [8] were 0.182 nM, 18.2 nM and 56.7 nM, respectively. The inhibition constant Ki on hMC3 [1] stood at 863 nM; on hMC1 [2], 16.4 nM; on hMC4 [4] it was 4.97 nM.
`CC[C@H](C)[C@@H]1NC(=O)N([C@H]2CSSC[C@@H](C(N)=O)NC(=O)[C@H](Cc3c[nH]c4ccccc34)NC(=O)[C@H](CCCNC(=N)N)NC(=O)[C@@H](Cc3ccccc3)NC(=O)[C@H](Cc3cnc[nH]3)NC(=O)[C@@H](C)NC2=O)C1=O` [cyclo[Hydantoin(C(O)-(Ile-Cys))-D-Ala-His-D-Phe-Arg-Trp-Cys]-NH2] showed a Ki at hMC5 [3] of more than 10000 nM.
As to `N=C(N)NCCC[C@@H]1NC(=O)[C@@H](Cc2ccc3ccccc3c2)NC(=O)[C@H](Cc2cnc[nH]2)N2C(=O)N[C@@H](CC(=O)NCCCC[C@@H](C(N)=O)NC(=O)[C@H](Cc3c[nH]c4ccccc34)NC1=O)C2=O` [cyclo[Hydantoin(C(O)-(Asp-His))-D-2-Nal-Arg-Trp-Lys]-NH2], the affinity on hMC1 [2], expressed as Ki, was 200 nM.
Consider `C[C@H]1NC(=O)[C@@H](NC(=O)CN2C(=O)N[C@H](C)C2=O)CSSC[C@@H](C(N)=O)NC(=O)[C@H](Cc2c[nH]c3ccccc23)NC(=O)[C@H](CCCNC(=N)N)NC(=O)[C@@H](Cc2ccccc2)NC(=O)[C@H](Cc2cnc[nH]2)NC1=O` [Hydantoin(C(O)-(D-Ala-Gly))-cyclo(Cys-D-Ala-His-D-Phe-Arg-Trp-Cys)-NH2], for which the EC50 at hMC4 [5] turned out to be 0.309 nM; at hMC5 [6], 355 nM; on hMC3 [7] it was 2.22 nM; on hMC1 [8] it was 4.7 nM.
Take `N=C(N)NCCC[C@@H]1NC(=O)[C@@H](Cc2ccc3ccccc3c2)NC(=O)C2(CCCC2)N2C(=O)N[C@@H](CC(=O)NCCCC[C@@H](C(N)=O)NC(=O)[C@H](Cc3c[nH]c4ccccc34)NC1=O)C2=O` [cyclo[Hydantoin(C(O)-(Asp-A5c))-D-2-Nal-Arg-Trp-Lys]-NH2]: the inhibition constant (Ki) stood at 2390 nM on hMC3 [1] and 9940 nM at hMC1 [2].

By Ki is commonly meant the equilibrium dissociation constant of an inhibitor or competing ligand from its target. The low end stands for tighter binding, the high end for weaker binding. In general, EC50 refers to the concentration giving half of the maximal effect. Read a high EC50 as lower potency in that assay.
